Values quoted from earlier work in PMC11071479 (bioRxiv, 2024).
pIC50: −log10 of the molar value.

Target: T1, MCT4 (Homo sapiens, UniProt O15427)
T1 sequence (O15427 2-465): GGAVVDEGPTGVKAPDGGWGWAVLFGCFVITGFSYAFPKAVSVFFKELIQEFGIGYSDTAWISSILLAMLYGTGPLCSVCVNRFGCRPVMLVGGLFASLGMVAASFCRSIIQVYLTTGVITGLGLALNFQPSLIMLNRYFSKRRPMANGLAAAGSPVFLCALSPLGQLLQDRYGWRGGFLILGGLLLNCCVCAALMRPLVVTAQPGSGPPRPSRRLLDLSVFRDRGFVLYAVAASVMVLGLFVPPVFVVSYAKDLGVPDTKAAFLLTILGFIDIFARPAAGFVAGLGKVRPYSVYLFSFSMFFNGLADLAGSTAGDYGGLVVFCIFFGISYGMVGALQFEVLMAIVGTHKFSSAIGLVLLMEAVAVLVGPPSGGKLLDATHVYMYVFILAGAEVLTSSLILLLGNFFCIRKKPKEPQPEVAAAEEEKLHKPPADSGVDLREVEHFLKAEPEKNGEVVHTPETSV
Assay: MCT4 inhibition IC50 stated without citation
Format: cell-based

For VB253, the pIC50 is given as roughly 8.70.
